According to patent publication US10968178B2, “IP6K inhibitors” (TAKEDA PHARMACEUTICAL COMPANY LIMITED, priority 2017, dated 2021):

What was measured:
Assay type in all cases: biochemical
[1] = biological target: T1, human IP6K1 (Homo sapiens, UniProt Q92551); assay: IP6K enzyme inhibitory assay (ADP-Glo Kinase Assay), human IP6K1; details: compound concentration 0.1 μM; read-out: ADP-Glo method inhibitory rate (%) human IP6K1
T1 construct: human IP6K1 (1-441) gene; GST; made in house; host or cells: Sf-9 insect cells
Procedure: (§1) IP6K Enzyme Inhibitory Assay
(§2) Human IP6K3 enzyme was prepared by transducing human IP6K3 (1-410) gene into BL21 (DE3) Escherichia coli and purifying by Ni-NTA (nickel-nitrilotriacetic acid) affinity column. […] The enzymes were used after preservation at −70° C. The IP6K enzyme inhibitory activity of the test compound was measured by the following experiment method and using ADP-Glo™ Kinase Assay (manufactured by Promega). A test compound diluted with an assay buffer (20 mM HEPES (pH 7.5), 6 mM MgCl2, 0.01% Tween-20, 1 mM DTT) was first added by 2 μL to a 384 well plate. […] The IP6K enzyme solution diluted with the assay buffer was added by 2 μL to start the enzyme reaction. Incubation was performed at room temperature for a given time (120 min for rat IP6K3 alone, 60 min for others). After incubation at room temperature, ADP-Glo solution prepared according to the protocol of Promega was added by 3 μL to the 384 well plate and reacted at room temperature for 30 min. Thereafter, Kinase-Detection solution was added by 6 μL to the 384 well plate and reacted at room temperature for 60 min. After the reaction, the luminescence intensity was measured by a plate reader Envision (manufactured by PerkinElmer).

[2] = biological target: T2, human IP6K2 (Homo sapiens, UniProt Q9UHH9); assay: IP6K enzyme inhibitory assay (ADP-Glo Kinase Assay), human IP6K2; details: compound concentration 0.1 μM; read-out: ADP-Glo method inhibitory rate (%) human IP6K2
T2 construct: human IP6K2 (1-426) gene; GST; made in house; host or cells: Sf-9 insect cells
T2 sequence (Q9UHH9 1-426): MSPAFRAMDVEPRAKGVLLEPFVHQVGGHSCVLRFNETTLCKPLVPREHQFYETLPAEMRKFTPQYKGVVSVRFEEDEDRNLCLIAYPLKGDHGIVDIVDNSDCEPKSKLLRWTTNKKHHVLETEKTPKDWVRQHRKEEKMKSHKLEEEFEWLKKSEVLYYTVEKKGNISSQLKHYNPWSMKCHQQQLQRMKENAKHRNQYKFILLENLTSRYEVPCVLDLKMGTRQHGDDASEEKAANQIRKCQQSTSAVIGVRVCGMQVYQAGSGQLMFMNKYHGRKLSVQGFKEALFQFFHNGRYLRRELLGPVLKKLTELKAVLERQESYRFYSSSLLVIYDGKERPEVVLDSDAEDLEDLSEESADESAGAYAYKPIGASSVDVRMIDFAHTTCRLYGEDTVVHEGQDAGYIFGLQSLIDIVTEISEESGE
Procedure: as §1, §2

[3] = biological target: T3, human IP6K3 (Homo sapiens, UniProt Q96PC2); assay: IP6K enzyme inhibitory assay (ADP-Glo Kinase Assay), human IP6K3; details: compound concentration 0.1 μM; read-out: ADP-Glo method inhibitory rate (%) human IP6K3
T3 construct: human IP6K3 (1-410) gene; made in house; host or cells: BL21 (DE3) Escherichia coli
T3 sequence (Q96PC2 1-410): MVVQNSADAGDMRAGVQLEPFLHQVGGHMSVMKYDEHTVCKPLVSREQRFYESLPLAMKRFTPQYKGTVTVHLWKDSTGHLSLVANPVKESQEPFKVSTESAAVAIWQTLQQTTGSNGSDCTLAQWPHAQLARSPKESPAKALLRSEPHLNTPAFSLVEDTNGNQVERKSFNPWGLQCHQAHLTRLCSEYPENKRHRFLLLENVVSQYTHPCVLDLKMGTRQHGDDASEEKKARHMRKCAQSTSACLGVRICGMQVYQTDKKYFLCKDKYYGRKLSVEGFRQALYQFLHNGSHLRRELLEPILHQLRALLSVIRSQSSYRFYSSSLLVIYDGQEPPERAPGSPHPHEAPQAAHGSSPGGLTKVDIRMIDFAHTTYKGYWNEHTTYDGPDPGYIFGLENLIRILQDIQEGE
Procedure: as §1, §2

T1 sequence (Q92551 whole entry): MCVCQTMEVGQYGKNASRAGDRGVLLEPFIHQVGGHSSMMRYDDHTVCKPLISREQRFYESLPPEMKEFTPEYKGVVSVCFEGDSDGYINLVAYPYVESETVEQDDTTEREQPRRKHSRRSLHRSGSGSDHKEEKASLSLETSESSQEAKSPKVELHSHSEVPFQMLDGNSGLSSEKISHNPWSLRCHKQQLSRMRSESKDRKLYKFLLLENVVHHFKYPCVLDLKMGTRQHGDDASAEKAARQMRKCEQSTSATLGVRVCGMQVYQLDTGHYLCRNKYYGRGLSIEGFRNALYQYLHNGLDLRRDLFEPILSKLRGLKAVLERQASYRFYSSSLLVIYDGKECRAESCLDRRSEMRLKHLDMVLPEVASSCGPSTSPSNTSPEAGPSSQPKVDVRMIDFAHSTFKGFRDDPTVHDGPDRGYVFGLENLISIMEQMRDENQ

Structure (SMILES): O=C(O)c1ccc2c(c1)[C@]1(CC[C@@H](Oc3ccc(Cl)cc3Cl)CC1)C(=O)N2 [Example 1, (1r,4r)-4-(2,4-dichlorophenoxy)-2′-oxo-1′,2′-dihydrospiro[cyclohexane-1,3′-indole]-5′-carboxylic acid]
- inhibition at 0.1 µM [1]: 100%
- inhibition at 0.1 µM [2]: 100%
- inhibition at 0.1 µM [3]: 99%

Structure (SMILES): O=C(O)c1ccc2c(c1)[C@]1(CC[C@@H](Oc3ccc(F)cc3)CC1)C(=O)N2 [Example 2]
- inhibition at 0.1 µM [1]: 101%
- inhibition at 0.1 µM [2]: 94%
- inhibition at 0.1 µM [3]: 100%

Structure (SMILES): O=C(O)c1ccc2c(c1)[C@]1(CC[C@@H](Oc3c(Cl)cc(Cl)cc3Cl)CC1)C(=O)N2 [Example 3, (1r,4r)-2′-oxo-4-(2,4,6-trichlorophenoxy)-1′,2′-dihydrospiro[cyclohexane-1,3′-indole]-5′-carboxylic acid]
- inhibition at 0.1 µM [1]: 101%
- inhibition at 0.1 µM [2]: 101%
- inhibition at 0.1 µM [3]: 85%

Structure (SMILES): O=C(O)c1ccc2c(c1)[C@]1(CC[C@@H](Oc3ncc(F)cc3F)CC1)C(=O)N2 [Example 4, (1r,4r)-4-((3,5-difluoropyridin-2-yl)oxy)-2′-oxo-1′,2′-dihydrospiro[cyclohexane-1,3′-indole]-5′-carboxylic acid]
- inhibition at 0.1 µM [1]: 66%
- inhibition at 0.1 µM [2]: 79%
- inhibition at 0.1 µM [3]: 99%

Structure (SMILES): O=C(O)c1ccc2c(c1)[C@]1(CC[C@H](Oc3cc(F)cnc3F)CC1)C(=O)N2 [Example 5, (1s,4s)-4-((2,5-difluoropyridin-3-yl)oxy)-2′-oxo-1′,2′-dihydrospiro[cyclohexane-1,3′-indole]-5′-carboxylic acid]
- inhibition at 0.1 µM [1]: 86%
- inhibition at 0.1 µM [2]: 89%
- inhibition at 0.1 µM [3]: 94%

Structure (SMILES): O=C(O)c1ccc2c(c1)[C@]1(CC[C@@H](Oc3ccc(C(F)(F)F)nc3)CC1)C(=O)N2 [Example 6, (1r,4r)-2′-oxo-4-((6-(trifluoromethyl)pyridin-3-yl)oxy)-1′,2′-dihydrospiro[cyclohexane-1,3′-indole]-5′-carboxylic acid]
- inhibition at 0.1 µM [1]: 96%
- inhibition at 0.1 µM [2]: 93%
- inhibition at 0.1 µM [3]: 97%

Structure (SMILES): N#Cc1cc(Cl)ccc1O[C@H]1CC[C@@]2(CC1)C(=O)Nc1ccc(C(=O)O)cc12 [Example 7, (1r,4r)-4-(4-chloro-2-cyanophenoxy)-2′-oxo-1′,2′-dihydrospiro[cyclohexane-1,3′-indole]-5′-carboxylic acid]
- inhibition at 0.1 µM [1]: 100%
- inhibition at 0.1 µM [2]: 101%
- inhibition at 0.1 µM [3]: 86%

Structure (SMILES): NC(=O)c1cc(Cl)ccc1O[C@H]1CC[C@@]2(CC1)C(=O)Nc1ccc(C(=O)O)cc12 [Example 8, (1r,4r)-4-(2-carbamoyl-4-chlorophenoxy)-2′-oxo-1′,2′-dihydrospiro[cyclohexane-1,3′-indole]-5′-carboxylic acid]
- inhibition at 0.1 µM [1]: 100%
- inhibition at 0.1 µM [2]: 97%
- inhibition at 0.1 µM [3]: 95%

Structure (SMILES): O=C(O)c1ccc2c(c1)[C@]1(CC[C@@H](Oc3ccc(C(F)(F)F)cc3)CC1)C(=O)N2 [Example 10, (1r,4r)-2-oxo-4-(4-(trifluoromethyl)phenoxy)-1′,2′-dihydrospiro[cyclohexane-1,3′-indole]-5′-carboxylic acid]
- inhibition at 0.1 µM [1]: 98%
- inhibition at 0.1 µM [2]: 100%
- inhibition at 0.1 µM [3]: 102%

Structure (SMILES): O=C(O)c1ccc2c(c1)[C@]1(CC[C@@H](Oc3ccc(Cl)cn3)CC1)C(=O)N2 [Example 11, (1r,4r)-4-((5-chloropyridin-2-yl)oxy)-2′-oxo-1′,2′-dihydrospiro[cyclohexane-1,3′-indole]-5′-carboxylic acid]
- inhibition at 0.1 µM [1]: 100%
- inhibition at 0.1 µM [2]: 97%
- inhibition at 0.1 µM [3]: 102%

Structure (SMILES): O=C(O)c1ccc2c(c1)[C@]1(CC[C@@H](Oc3ccccc3Cl)CC1)C(=O)N2 [Example 12, (1r,4r)-4-(2-chlorophenoxy)-2′-oxo-1′,2′-dihydrospiro[cyclohexane-1,3′-indole]-5′-carboxylic acid]
- inhibition at 0.1 µM [1]: 95%
- inhibition at 0.1 µM [2]: 97%
- inhibition at 0.1 µM [3]: 101%

Structure (SMILES): O=C(O)c1ccc2c(c1)[C@]1(CC[C@H](Oc3ncc(F)cc3F)CC1)C(=O)N2 [Example 13, (1s,4s)-4-((3,5-difluoropyridin-2-yl)oxy)-2′-oxo-1′,2′-dihydrospiro[cyclohexane-1,3′-indole]-5′-carboxylic acid]
- inhibition at 0.1 µM [1]: 100%
- inhibition at 0.1 µM [2]: 97%
- inhibition at 0.1 µM [3]: 100%

Structure (SMILES): O=C(O)c1ccc2c(c1)[C@]1(CC[C@H](Oc3ccc(Cl)cc3Cl)CC1)C(=O)N2 [Example 15, (1s,4s)-4-(2,4-dichlorophenoxy)-2′-oxo-1′,2′-dihydrospiro[cyclohexane-1,3′-indole]-5′-carboxylic acid]
- inhibition at 0.1 µM [1]: 99%
- inhibition at 0.1 µM [2]: 101%
- inhibition at 0.1 µM [3]: 91%

Structure (SMILES): O=C(O)c1ccc2c(n1)[C@]1(CC[C@@H](Oc3ncc(C4CC4)cc3Cl)CC1)C(=O)N2 [Example 16, (1r,4r)-4-((3-chloro-5-cyclopropylpyridin-2-yl)oxy)-2′-oxo-1′,2′-dihydrospiro[cyclohexane-1,3′-pyrrolo[3,2-b]pyridine]-5′-carboxylic acid]
- inhibition at 0.1 µM [1]: 99%
- inhibition at 0.1 µM [2]: 89%
- inhibition at 0.1 µM [3]: 98%

Structure (SMILES): Cc1cc(Cl)cnc1O[C@H]1CC[C@@]2(CC1)C(=O)Nc1ccc(C(=O)O)nc12 [Example 17, (1r,4r)-4-((5-chloro-3-methylpyridin-2-yl)oxy)-2′-oxo-1′,2′-dihydrospiro[cyclohexane-1,3′-pyrrolo[3,2-b]pyridine]-5′-carboxylic acid]
- inhibition at 0.1 µM [1]: 92%
- inhibition at 0.1 µM [2]: 91%
- inhibition at 0.1 µM [3]: 93%

Structure (SMILES): Cc1ccc(C(F)(F)F)c(O[C@H]2CC[C@@]3(CC2)C(=O)Nc2ccc(C(=O)O)nc23)n1 [Example 18, (1r,4r)-4-((6-methyl-3-(trifluoromethyl)pyridin-2-yl)oxy)-2′-oxo-1′,2′-dihydrospiro[cyclohexane-1,3′-pyrrolo[3,2-b]pyridine]-5′-carboxylic acid]
- inhibition at 0.1 µM [1]: 54%
- inhibition at 0.1 µM [2]: 62%
- inhibition at 0.1 µM [3]: 77%

Structure (SMILES): O=C(O)c1ccc2c(c1)[C@]1(CC[C@@H](Oc3ccccn3)CC1)C(=O)N2 [Example 19, (1r,4r)-2′-oxo-4-[pyridin-2-yloxy)-1′,2′-dihydrospiro[cyclohexane-1,3′-indole]-5′-carboxylic acid]
- inhibition at 0.1 µM [1]: 40%
- inhibition at 0.1 µM [2]: 45%
- inhibition at 0.1 µM [3]: 70%

Structure (SMILES): Cc1ccc(O[C@H]2CC[C@@]3(CC2)C(=O)Nc2ccc(C(=O)O)cc23)nc1 [Example 20, (1r,4r)-4-((5-methylpyridin-2-yl)oxy)-2′-oxo-1′,2′-dihydrospiro[cyclohexane-1,3′-indole]-5′-carboxylic acid]
- inhibition at 0.1 µM [1]: 79%
- inhibition at 0.1 µM [2]: 95%
- inhibition at 0.1 µM [3]: 98%

Structure (SMILES): Cc1cccnc1O[C@H]1CC[C@@]2(CC1)C(=O)Nc1ccc(C(=O)O)cc12 [Example 21, (1r,4r)-4-((3-methylpyridin-2-yl)oxy)-2′-oxo-1′,2′-dihydrospiro[cyclohexane-1,3′-indole]-5′-carboxylic acid]
- inhibition at 0.1 µM [1]: 79%
- inhibition at 0.1 µM [2]: 91%
- inhibition at 0.1 µM [3]: 96%

Structure (SMILES): O=C(O)c1ccc2c(c1)[C@]1(CC[C@@H](Oc3ccc(F)cn3)CC1)C(=O)N2 [Example 22, (1r,4r)-4-((5-fluoropyridin-2-yl)oxy)-2′-oxo-1′,2′-dihydrospiro[cyclohexane-1,3′-indole]-5′-carboxylic acid]
- inhibition at 0.1 µM [1]: 72%
- inhibition at 0.1 µM [2]: 72%
- inhibition at 0.1 µM [3]: 90%

Structure (SMILES): O=C(O)c1ccc2c(c1)[C@]1(CC[C@@H](Oc3cc(Cl)ccn3)CC1)C(=O)N2 [Example 23, (1r,4r)-4-((4-chloropyridin-2-yl)oxy)-2′-oxo-1′,2′-dihydrospiro[cyclohexane-1,3′-indole]-5′-carboxylic acid]
- inhibition at 0.1 µM [1]: 72%
- inhibition at 0.1 µM [2]: 79%
- inhibition at 0.1 µM [3]: 92%
